Assay results as given in ChEMBL document CHEMBL1126096, “Carbohydrate materials bearing neuraminidase-resistant C-glycosides of sialic acid strongly inhibit the in vitro infectivity of influenza virus” (J Med Chem, 1992).

Key:
[1] = test system: unidentified influenza virus; test: Potency to inhibit influenza virus (X-31) relative to alpha-C-allyl sialic acid; format: functional
[2] = test system: unidentified influenza virus; test: The compound was evaluated for the inhibition of influenza virus (X-31); format: functional, organism-based

For `C=CC[C@@]1(C(=O)O)C[C@H](O)[C@@H](NC(C)=O)[C@H](C(O)C(O)CO)O1` (stereo partly specified), the Relative potency [1] was 1 and the IC50 [2] was 10 mM.

In the case of `CO[C@]1(C(=O)O)C[C@H](O)[C@@H](NC(C)=O)[C@H]([C@@H](O)[C@H](O)CO)O1`, the Relative potency [1] is reported as 2.5 and the IC50 [2] is reported as 4 mM.

With `C=CC[C@]1(C(=O)O)C[C@H](O)[C@@H](NC(C)=O)[C@H](C(O)C(O)CO)O1` (stereo partly specified) the Relative potency [1] was under 0.02 and the IC50 [2] was over 50 mM.
